Test results taken from US20230138851A1, “NOVEL ALKYNE DERIVATIVES” (CARNA BIOSCIENCES, INC., priority 2020, published 2023).

What was measured:
Assay type in all cases: biochemical
DYRK1A = target: T1, DYRK1A (Homo sapiens, UniProt Q13627); experiment: Inhibition test on activity of DYRK family, mobility shift assay (MSA), DYRK1A; conditions: ATP 100 μM, FITC-labeled DYRKtide peptide substrate, room temperature 1 hour; for IC50: read-out: Inhibitory Activity 1a (IC50 against DYRK1A)
T1 construct: purchased Carna Biosciences, Inc. 04-130
Description: (§1) [Inhibition Test on Activity of DYRK Family (DYRK1A, DYRK1B, DYRK2, and […])]
(§2) (Method for Measuring Kinase Activity)
(§3) The kinase activity was measured by mobility shift assay (MSA) method using QuickScout Screening Assist™ MSA (commercially available kit manufactured by Carna Biosciences, Inc.). The substrate of the kinase reaction used was an FITC-labeled DYRKtide peptide included in the kit. An assay buffer [20 mM HEPES, 0.01% Triton X-100™, 2 mM dithiothreitol, pH 7.5] was used to create a substrate mixture solution with a substrate (4 μM), MgCl2 (20 mM), and ATP (DYRK1A: 100 μM; DYRK1B: 200 μM; DYRK2: 40 μM; and DYRK3: 20 μM). In addition, kinases (DYRK1A: manufactured by Carna Biosciences, Inc., Cat. No. 04-130; DYRK1B: manufactured by Carna Biosciences, Inc., Cat. No. 04-131; DYRK2; manufactured by Carna Biosciences, Inc., Cat. No. 04-132; and DYRK3; manufactured by Carna Biosciences, Inc., Cat. No. 04-133) were diluted with the assay buffer to prepare enzyme solutions (DYRK1A: 0.2 ng/μL; DYRK1B: 0.08 ng/μL; DYRK2: 0.04 ng/μL; and DYRK3: 0.25 ng/μL). The 10 mM solution of the test compound in DMSO was further diluted with DMSO to 10 levels of the concentration (0.00003 mM, 0.0001 mM, 0.0003 mM, 0.001 mM, 0.003 mM, 0.01 mM, 0.03 mM, 0.1 mM, 0.3 mM, and 1 mM), each of which was subjected to 25-fold dilution with the assay buffer to obtain a drug solution (4% DMSO solution). 5 μL of the drug solution or a control solution (4% DMSO-assay buffer), 5 μL of the substrate mixture solution, and 10 μL of the enzyme solution were mixed in the wells of a polypropylene 384-well plate and allowed to react at room temperature for 1 hour, and then the reaction was quenched by adding 60 μL of the termination buffer included in the kit. Subsequently, the quantities of the substrates (S) and the phosphorylated substrate (P) in the reaction solution were measured using LabChip EZ Reader II system (manufactured by Caliper Life Sciences) according to the protocol of the assay kit.
(§4) (Method for Evaluating Inhibitory Activity)
(§5) The heights of the peaks of the “substrate” and the “phosphorylated substrate” were expressed as S and P, respectively, and a blank containing the assay buffer instead of the enzyme solution was also measured.
(§6) The inhibition rate (%) of the test compound was calculated according to the following equation:
(§7) Inhibition rate (%)=(1−(C−A)/(B−A))×100
(§8) wherein, A, B, and C represent P/(P+S) of the blank well, P/(P+S) of the control solution well, and P/(P+S) of the compound-containing well, respectively.
(§9) The IC50 value was calculated via a regression analysis of the inhibition rate and the test compound concentration (logarithmic value).
(§10) The inhibiting activities of representative compounds of the present invention are shown against DYRK1A, DYRK1B, DYRK2, and DYRK3 in Tables 7 and 8. The kinase activity inhibitory effect was indicated with the mark *** at an IC50 value of less than 0.01 μM; the mark ** at 0.01 μM or more and less than 0.1 μM; the mark * at 0.1 μM or more and less than 1 μM; and the mark — at 1 μM or more (N.D. indicates not measured).

DYRK2 = target: T2, DYRK2 (Homo sapiens, UniProt Q92630); experiment: Inhibition test on activity of DYRK family, mobility shift assay (MSA), DYRK2; conditions: ATP 40 μM, FITC-labeled DYRKtide peptide substrate, room temperature 1 hour; for IC50: read-out: Inhibitory Activity 2 (IC50 against DYRK2)
T2 construct: purchased Carna Biosciences, Inc. 04-132
T2 sequence (Q92630 1-601): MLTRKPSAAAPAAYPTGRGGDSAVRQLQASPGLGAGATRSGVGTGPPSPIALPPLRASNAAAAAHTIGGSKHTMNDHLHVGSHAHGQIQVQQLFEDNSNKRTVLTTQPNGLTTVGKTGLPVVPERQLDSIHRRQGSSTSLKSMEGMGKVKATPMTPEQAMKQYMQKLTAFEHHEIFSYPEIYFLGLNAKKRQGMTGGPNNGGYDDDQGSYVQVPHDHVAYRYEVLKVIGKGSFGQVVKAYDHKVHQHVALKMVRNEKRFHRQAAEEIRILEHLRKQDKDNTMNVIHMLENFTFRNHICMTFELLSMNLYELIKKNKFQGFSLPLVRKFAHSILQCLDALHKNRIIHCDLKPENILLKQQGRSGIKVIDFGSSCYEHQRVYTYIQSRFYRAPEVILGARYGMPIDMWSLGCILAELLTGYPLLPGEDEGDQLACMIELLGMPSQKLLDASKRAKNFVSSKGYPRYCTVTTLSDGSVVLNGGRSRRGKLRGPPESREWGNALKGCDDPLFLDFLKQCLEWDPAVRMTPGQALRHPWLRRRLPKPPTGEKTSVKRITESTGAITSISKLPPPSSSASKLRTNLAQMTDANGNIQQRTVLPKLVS
Description: as §1, §2, §3, §4, §5, §6, §7, §8, §9, §10

DYRK3 = target: T3, DYRK3 (Homo sapiens, UniProt O43781); experiment: Inhibition test on activity of DYRK family, mobility shift assay (MSA), DYRK3; conditions: ATP 20 μM, FITC-labeled DYRKtide peptide substrate, room temperature 1 hour; for IC50: read-out: Inhibitory Activity 3 (IC50 against DYRK3)
T3 construct: purchased Carna Biosciences, Inc. 04-133
T3 sequence (O43781 1-588): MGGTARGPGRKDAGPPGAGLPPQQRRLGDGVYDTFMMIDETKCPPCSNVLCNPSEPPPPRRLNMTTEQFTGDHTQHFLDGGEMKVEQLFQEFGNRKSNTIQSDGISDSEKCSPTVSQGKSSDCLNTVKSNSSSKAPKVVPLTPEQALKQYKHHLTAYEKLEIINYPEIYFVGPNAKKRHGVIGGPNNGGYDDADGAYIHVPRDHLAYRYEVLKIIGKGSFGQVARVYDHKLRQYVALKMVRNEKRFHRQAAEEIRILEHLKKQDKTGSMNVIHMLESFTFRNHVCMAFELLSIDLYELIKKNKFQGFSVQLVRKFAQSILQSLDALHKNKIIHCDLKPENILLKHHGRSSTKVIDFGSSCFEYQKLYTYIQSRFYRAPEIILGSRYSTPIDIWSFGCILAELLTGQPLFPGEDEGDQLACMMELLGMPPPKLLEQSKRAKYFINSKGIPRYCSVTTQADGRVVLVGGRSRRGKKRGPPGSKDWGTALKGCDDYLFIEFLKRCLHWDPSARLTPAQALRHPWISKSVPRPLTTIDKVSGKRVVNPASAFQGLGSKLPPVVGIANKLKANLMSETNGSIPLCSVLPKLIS
Description: as §1, §2, §3, §4, §5, §6, §7, §8, §9, §10

Row | IC50 (DYRK1A) | IC50 (DYRK2) | IC50 (DYRK3) | Inhibitory Activity 1a (IC50 against DYRK1A) (DYRK1A) | Inhibitory Activity 2 (IC50 against DYRK2) (DYRK2) | Inhibitory Activity 3 (IC50 against DYRK3) (DYRK3) | SMILES
1 | 0.1 to 1 µM | ≥ 1 µM | ≥ 1 µM | – | – | – | CC#CC1CNC(=O)N1c1nc2c3c(ccc2s1)OCC3 (single isomer, unassigned) [Example 10, 1-(7,8-dihydrobenzofuro[4,5-d]thiazol-2-yl)-5-(prop-1-yn-1-yl)imidazolidin-2-one]
2 | – | – | – | * * * | * * | * * | C#CC1CNC(=O)N1c1nc2c3c(ccc2s1)OCC3 (single isomer, unassigned) [Example 13, 1-(7,8-dihydrobenzofuro[4,5-d]thiazol-2-yl)-5-ethynylimidazolidin-2-one]
3 | – | 0.1 to 1 µM | 0.1 to 1 µM | * * | – | – | C#CC1CNC(=O)N1c1nc2c3c(ccc2s1)OCC3 (single isomer, unassigned) [Example 14, 1-(7,8-dihydrobenzofuro[4,5-d]thiazol-2-yl)-5-ethynylimidazolidin-2-one]
4 | – | – | – | * * * | * * | * * | CC#CC1CNC(=O)N1c1nc2c(ccc3ncccc32)s1 (single isomer, unassigned) [Example 34, 5-(prop-1-yn-1-yl)-1-(thiazolo[4,5-f]quinolin-2-yl)imidazolidin-2-one]
5 | – | 0.1 to 1 µM | 0.1 to 1 µM | * * | – | – | CC#CC1CNC(=O)N1c1nc2c(ccc3ncccc32)s1 (single isomer, unassigned) [Example 36, 5-(prop-1-yn-1-yl)-1-(thiazolo[4,5-f]quinolin-2-yl)imidazolidin-2-one]
6 | 0.1 to 1 µM | ≥ 1 µM | ≥ 1 µM | – | – | – | CC#CC1CNC(=O)N1c1nc2c3c(ccc2s1)OCC(C)N3C (single isomer, unassigned) [Example 48, 1-(-8,9-dimethyl-8,9-dihydro-7H-thiazolo[4′,5′:3,4]benz[1,2-b][1,4]oxazin-2-yl)-5-(prop-1-yn-1-yl)imidazolidin-2-one]
7 | – | ≥ 1 µM | 0.1 to 1 µM | * * * | – | – | CC#CC1CNC(=O)N1c1nc2c3c(ccc2s1)OCC(C)N3C (single isomer, unassigned) [Example 49, 1-(-8,9-dimethyl-8,9-dihydro-7H-thiazolo[4′,5′:3,4]benz[1,2-b][1,4]oxazin-2-yl)-5-(prop-1-yn-1-yl)imidazolidin-2-one]
8 | – | ≥ 1 µM | 0.1 to 1 µM | * * * | – | – | CC#CC1CNC(=O)N1c1nc2c(ccc3ocnc32)s1 (single isomer, unassigned) [Example 52, 5-(prop-1-yn-1-yl)-1-(thiazolo[5′,4′:5,6]benz[1,2-d]oxazol-7-yl)imidazolidin-2-one]
9 | 0.1 to 1 µM | ≥ 1 µM | ≥ 1 µM | – | – | – | CC#CC1CNC(=O)N1c1nc2c(ccc3ocnc32)s1 (single isomer, unassigned) [Example 53, 5-(prop-1-yn-1-yl)-1-(thiazolo[5′,4′:5,6]benz[1,2-d]oxazol-7-yl)imidazolidin-2-one]
10 | – | 0.1 to 1 µM | – | * * * | – | * * | CC#CC1CNC(=O)N1c1nc2c3c(ccc2s1)OCCO3 (single isomer, unassigned) [Example 58, 1-(7,8-dihydro-[1,4]dioxino[2′,3′:5,6]benz[1,2-d]thiazol-2-yl)-5-(prop-1-yn-1-yl)imidazolidin-2-one]
11 | ≥ 1 µM | ≥ 1 µM | ≥ 1 µM | – | – | – | CC#CC1CNC(=O)N1c1nc2c3c(ccc2s1)OCCO3 (single isomer, unassigned) [Example 59, 1-(7,8-dihydro-[1,4]dioxino[2′,3′:5,6]benz[1,2-d]thiazol-2-yl)-5-(prop-1-yn-1-yl)imidazolidin-2-one]
12 | – | 0.1 to 1 µM | 0.1 to 1 µM | * * * | – | – | CC#C[C@H]1[C@H](CO)NC(=O)N1c1nc2c3c(ccc2s1)OCCO3 (single isomer, unassigned) [Example 65, trans-1-(7,8-dihydro-[1,4]dioxino[2′,3′:5,6]benz[1,2-d]thiazol-2-yl)-4-(hydroxymethyl)-5-(prop-1-yn-1-yl)imidazolidin-2-one]
13 | 0.1 to 1 µM | ≥ 1 µM | ≥ 1 µM | – | – | – | CC#C[C@H]1[C@H](CO)NC(=O)N1c1nc2c3c(ccc2s1)OCCO3 (single isomer, unassigned) [Example 66, trans-1-(7,8-dihydro-[1,4]dioxino[2′,3′:5,6]benz[1,2-d]thiazol-2-yl)-4-(hydroxymethyl)-5-(prop-1-yn-1-yl)imidazolidin-2-one]
14 | – | ≥ 1 µM | 0.1 to 1 µM | * * | – | – | CC#C[C@H]1[C@H](CN(C)C)NC(=O)N1c1nc2c3c(ccc2s1)OCC3 (single isomer, unassigned) [Example 69, trans-1-(7,8-dihydrobenzofuro[4,5-d]thiazol-2-yl)-4-[(dimethylamino)methyl]-5-(prop-1-yn-1-yl)imidazolidin-2-one]
15 | 0.1 to 1 µM | ≥ 1 µM | ≥ 1 µM | – | – | – | CC#C[C@H]1[C@H](CN(C)C)NC(=O)N1c1nc2c3c(ccc2s1)OCC3 (single isomer, unassigned) [Example 70, trans-1-(7,8-dihydrobenzofuro[4,5-d]thiazol-2-yl)-4-[(dimethylamino)methyl]-5-(prop-1-yn-1-yl)imidazolidin-2-one]
